Measured values: ChEMBL document CHEMBL3425446, “Isolation, semi-synthesis and bio-evaluation of spatane derivatives from the brown algae Stoechospermum marginatum” (Bioorg Med Chem Lett, 2015)
Values after ≈ are worked out from the molar mass of the structure shown. Active and inactive are the calls of the source. The rule behind the calls is not given here.

Key:
[1] = Cytotoxicity against human U937 cells assessed as decrease in cell number after 24 hrs by MTT assay; type: functional, cell-based; details: U-937, 24 h
[2] = system: Klebsiella pneumoniae; experiment: Antibacterial activity against Klebsiella pneumoniae assessed as growth inhibition at 0.5 mg/ml after 24 hrs by well diffusion method; type: functional; details: read-out: DIZ
[3] = system: Micrococcus luteus; experiment: Antibacterial activity against Micrococcus luteus assessed as growth inhibition at 0.5 mg/ml after 24 hrs by well diffusion method; type: functional; details: read-out: DIZ
[4] = system: Bacillus subtilis; experiment: Antibacterial activity against Bacillus subtilis assessed as compound concentration required to complete growth inhibition at 8 hrs by tube dilution method; type: functional
[5] = system: COLO 205; experiment: Cytotoxicity against human COLO205 cells assessed as decrease in cell number after 24 hrs by MTT assay; type: functional, cell-based; details: COLO 205, 24 h
[6] = system: Escherichia coli; experiment: Antibacterial activity against Escherichia coli assessed as compound concentration required to complete growth inhibition at 8 hrs by tube dilution method; type: functional
[7] = system: THP-1; experiment: Cytotoxicity against human THP1 cells assessed as decrease in cell number after 24 hrs by MTT assay; type: functional, cell-based; details: THP-1, 24 h
[8] = Cytotoxicity against mouse B16F10 cells assessed as decrease in cell number after 24 hrs by MTT assay; type: functional, cell-based; details: B16-F10, 24 h
[9] = system: Micrococcus luteus; experiment: Antibacterial activity against Micrococcus luteus assessed as compound concentration required to complete growth inhibition at 8 hrs by tube dilution method; type: functional
[10] = Cytotoxicity against human HL60 cells assessed as decrease in cell number after 24 hrs by MTT assay; type: functional, cell-based; details: HL-60, 24 h
[11] = system: Bacillus subtilis; experiment: Antibacterial activity against Bacillus subtilis assessed as growth inhibition at 0.5 mg/ml after 24 hrs by well diffusion method; type: functional; details: read-out: DIZ
[12] = system: Klebsiella pneumoniae; experiment: Antibacterial activity against Klebsiella pneumoniae assessed as compound concentration required to complete growth inhibition at 8 hrs by tube dilution method; type: functional
[13] = system: Escherichia coli; experiment: Antibacterial activity against Escherichia coli assessed as growth inhibition at 0.5 mg/ml after 24 hrs by well diffusion method; type: functional; details: read-out: DIZ
[14] = system: COLO 205; experiment: Cytotoxicity against human COLO205 cells assessed as growth inhibition at 200 ug/ml after 24 hrs by MTT assay; type: functional, cell-based
[15] = system: HL-60; experiment: Cytotoxicity against human HL60 cells assessed as growth inhibition at 200 ug/ml after 24 hrs by MTT assay; type: functional, cell-based
[16] = system: Aspergillus niger; experiment: Antifungal activity against Aspergillus niger assessed as growth inhibition at 0.5 mg/ml after 48 hrs by well diffusion method; type: functional, organism-based
[17] = system: Aspergillus fumigatus; experiment: Antifungal activity against Aspergillus fumigatus assessed as growth inhibition at 0.5 mg/ml after 48 hrs by well diffusion method; type: functional, organism-based
[18] = system: Aspergillus terreus; experiment: Antifungal activity against Aspergillus terreus assessed as growth inhibition at 0.5 mg/ml after 48 hrs by well diffusion method; type: functional, organism-based

SMILES	MIC [4]	MIC [6]	MIC [9]	MIC [12]	IC50 [1]	zone of inhibition at 500 µg/mL [2]	zone of inhibition at 500 µg/mL [3]	IC50 [5]	IC50 [7]	IC50 [8]	IC50 [10]	zone of inhibition at 500 µg/mL [11]	zone of inhibition at 500 µg/mL [13]	growth inhibition (GI) [14]	growth inhibition (GI) [15]	zone of inhibition [16]	zone of inhibition [17]	zone of inhibition [18]
C=C(CC(C=C(C)C)OC(C)=O)[C@@H]1C[C@@H](OC(C)=O)[C@@]2(C)[C@@H]1[C@@H]1[C@H](C)CC[C@@H]12 (mixture of isomers)	400 µg/mL	400 µg/mL	400 µg/mL	400 µg/mL	40.1 µg/mL	12.3 mm	12.3 mm	67.1 µg/mL	77.8 µg/mL	29 µg/mL	84.9 µg/mL	11.3 mm	0 mm					
C=C(C(O)/C=C/C(C)(O)COC(C)=O)[C@@H]1C[C@@H](O)[C@@]2(C)[C@@H]1[C@@H]1[C@H](C)CC[C@@H]12 (mixture of isomers)	200 µg/mL	200 µg/mL	400 µg/mL	200 µg/mL	144 µg/mL	12.3 mm	12 mm		67 µg/mL	99.8 µg/mL		10.3 mm	13 mm	inactive	inactive			
C[C@@H]1C[C@@H]([C@H](O)CC2CC(=O)NC(=O)C2)C(=O)[C@@H](C)C1 [CYCLOHEXIMIDE]																17.7 mm	16.3 mm	15.7 mm
C=C(C/C=C/C(C)(C)O)[C@@H]1C[C@@H](OC(C)=O)[C@@]2(C)[C@@H]1[C@@H]1[C@H](C)CC[C@@H]12 (mixture of isomers)	200 µg/mL	400 µg/mL	200 µg/mL	200 µg/mL	48.5 µg/mL	16 mm	15.3 mm	64.7 µg/mL	44.6 µg/mL	47.1 µg/mL	39.9 µg/mL	15.3 mm	13.3 mm					

More lines, in order of falling MIC [4], values ahead:

MIC [4]	MIC [6]	MIC [9]	MIC [12]	SMILES	IC50 [1]	zone of inhibition at 500 µg/mL [2]	zone of inhibition at 500 µg/mL [3]	IC50 [5]	IC50 [7]	IC50 [8]	IC50 [10]	zone of inhibition at 500 µg/mL [11]	zone of inhibition at 500 µg/mL [13]	growth inhibition (GI) [14]	growth inhibition (GI) [15]	zone of inhibition [16]	zone of inhibition [17]	zone of inhibition [18]
200 µg/mL (≈ 657 µM)	200 µg/mL (≈ 657 µM)	200 µg/mL (≈ 657 µM)	100 µg/mL (≈ 328 µM)	C=C(C(O)/C=C/C(C)=O)[C@@H]1C[C@@H](O)[C@@]2(C)[C@@H]1[C@@H]1[C@H](C)CC[C@@H]12 (some centres not stated)	13 µg/mL (≈ 42.8 µM)	11.7 mm	12.7 mm	42.1 µg/mL (≈ 138 µM)	38.9 µg/mL (≈ 128 µM)	17 µg/mL (≈ 55.9 µM)	42.3 µg/mL (≈ 139 µM)	12 mm	17.3 mm					
100 µg/mL	100 µg/mL	50 µg/mL	50 µg/mL	C=C(C)C(O)CCC(=C)[C@@H]1C[C@@H](OC(C)=O)[C@@]2(C)[C@@H]1[C@@H]1[C@H](C)CC[C@@H]12 (mixture of isomers)	35.1 µg/mL	19 mm	16.3 mm	145 µg/mL	58.1 µg/mL	104 µg/mL	157 µg/mL	13.7 mm	15.7 mm					
100 µg/mL	100 µg/mL	200 µg/mL	200 µg/mL	C=C(C(O)/C=C/C(C)(O)COC(C)=O)[C@@H]1CC(=O)[C@@]2(C)[C@@H]1[C@@H]1[C@H](C)CC[C@@H]12 (mixture of isomers)	43.6 µg/mL	0 mm	0 mm		52 µg/mL	58.5 µg/mL	43.9 µg/mL	0 mm	0 mm	inactive				
100 µg/mL (≈ 239 µM)	200 µg/mL (≈ 478 µM)	100 µg/mL (≈ 239 µM)	200 µg/mL (≈ 478 µM)	C=C(C(=O)/C=C/C(C)(O)COC(C)=O)[C@@H]1C[C@@H](OC(C)=O)[C@@]2(C)[C@@H]1[C@@H]1[C@H](C)CC[C@@H]12 (some centres not stated)	8.8 µg/mL (≈ 21 µM)	19.7 mm	21.7 mm	26.8 µg/mL (≈ 64 µM)	33.9 µg/mL (≈ 80.9 µM)	4.41 µg/mL (≈ 10.5 µM)	35.6 µg/mL (≈ 85.1 µM)	21.7 mm	23.7 mm					
100 µg/mL (≈ 328 µM)	100 µg/mL (≈ 328 µM)	100 µg/mL (≈ 328 µM)	100 µg/mL (≈ 328 µM)	C=C(C/C=C/C(C)(C)O)[C@@H]1C[C@@H](O)[C@@]2(C)[C@@H]1[C@@H]1[C@H](C)CC[C@@H]12	42.3 µg/mL (≈ 139 µM)	16 mm	16.3 mm		50 µg/mL (≈ 164 µM)	174 µg/mL (≈ 572 µM)		13.7 mm	12.7 mm	inactive	inactive			
